The values below come from PMC5095062, “The novel choline kinase inhibitor ICL-CCIC-0019 reprograms cellular metabolism and inhibits cancer cell growth” (Oncotarget, 2016).

Read-outs that look alike come from different tables or passages of the source.

The subject of assay [1] is HCT116 cells. As to the kind of experiment: [3H]choline uptake in HCT116 cells. Format: cell-based. The note with it: Homo sapiens, HCT-116. The protocol: (§1) Enzymatic kinase activity, [^3H]choline to [^3H]PCho conversion and growth inhibition assays was conducted as previously described. [^3H]choline incorporation into soluble and lipid fractions was determined by a pulse-chase experiment. HCT116 cells were seeded at a density of 3 × 10^5 cell per well into 12-well plates and incubated overnight. Cells were treated with 1 or 10 μM ICL-CCIC-0019 for 1 h and pulsed in presence of inhibitor with 18.5 kBq/mL [^3H]choline chloride in 500 μL for 1 additional h. Cells were briefly rinsed with RPMI and incubated with fresh, non-radioactive medium for 6 h. Metabolites were extracted as described elsewhere, but additionally the radioactivity of the choline-containing and chloroform (lipid-containing) fractions was measured. Uptake of radiolabeled metabolite-tracers was measured as described elsewhere. Antiproliferative activity was measured after 72 h continuous exposure to inhibitors by sulforhodamine B (SRB) assay as described elsewhere. Apoptosis was determined using Caspase 3/7 Glo assay (Promega) according to the manufacturer's instructions.

Assay [2] has as its system NCI-60 panel of cell lines. The assay can be described thus: NCI-60 screen (whole panel). It is filed as cell-based. Conditions: Homo sapiens. From the text:
(§2) The compound was then screened against a larger panel of cancer cell lines of diverse histopathologic origin, the NCI-60 screen. […] Mining of publicly available Cancer Genome Atlas (TCGA) expression data identified CHKA amplification and/or mRNA upregulation in 11% of breast, 5–10% of lung, 8% of ovarian, 7% of colorectal and 5% of prostate cancers. Furthermore, CHKA mRNA expression is higher in multiple tumor types compared to normal tissue (Supplementary Figure S1D). The gene was rarely mutated or deleted (0–2.5% mutation rate and < 1% deletion among all tested cancer types). The consistently high expression in a wide variety of tumor types highlights the relevance of CHKA in malignancy and role as a therapeutic target.

The next assay deals with Breast cancer cell lines. As to the kind of experiment: NCI-60 screen. Format: cell-based. Conditions: Homo sapiens, read-out: median GI50.
Source text: as §2

Assay [3] has as its system non-small lung cancer cell lines. As to the kind of experiment: NCI-60 screen. It is filed as cell-based. Conditions: Homo sapiens, read-out: median GI50.
Source text: as §2

In a further assay the test system is HCT116 xenografts. As to the kind of experiment: [18F]-D4-FCH PET imaging. Format: in vivo, BALB/c nude mice. From the text: Mice were anesthetized through isoflurane inhalation and scanned on a Siemens Multimodality Inveon small animal PET-CT scanner for [^18F]-D4-FCH PET studies using HCT116 xenografts. Low dose CT scans were first acquired (80 kVp, 0.5 mA, 220 degree rotation, 600 ms per degree exposure time, 80 μm reconstruction pixel size) for PET attenuation correction and anatomical reference. PET images were acquired following a bolus i.v. injection of approximately 3.7 MBq tracer in the tail vein. Dynamic emission scans were acquired in list mode format over 60 minutes. Data were sorted into 0.5 mm sinogram bins and 19 time frames for image reconstruction by filtered back projection (4 × 15 seconds, 4 × 60 seconds and 11 × 300 seconds). The Siemens Inveon Research Workplace software was used for visualization of radiotracer uptake. To define 3-dimensional regions of interest (ROI), 30 to 60-minute cumulative images of the dynamic were employed. Arterial input function was estimated by drawing ROIs over the center of the heart cavity using cumulative images from 0.25 to 2 minutes of the dynamic series, a method previously validated for use in rodents. The count densities were averaged for all ROIs at each time point to obtain time versus radioactivity curves (TAC). Tumor TACs were normalized to injected dose measured by a VDC-304 dose calibrator (Veenstra Instruments) and normalized uptake was expressed as percentage injected dose per mL tissue (NUV; %ID/mL).

Assay [4] deals with HCT116 cells. The assay can be described thus: Metabolomics (LC-MS of soluble metabolites). It is filed as cell-based, human. The note with it: for change of intracellular PCho pool: 24 h. The protocol:
Unlabeled metabolite analyses were conducted as previously reported. HCT116 cells cultured overnight in 6-well plates were treated with vehicle, 1 or 10 μM ICL-CCIC-0019 for 24 h prior to extraction. For flux experiments, HCT116 cells were plated onto 6-well plates and cultured overnight. The cells were then grown in medium containing vehicle or 1 μM ICL-CCIC-0019 for 24 h. The medium was then replaced with that containing ^13C metabolites (5 mM ^13C6-glucose or 0.2 mM ^13C2-acetate) and inhibitor for various indicated time points. Metabolites were extracted with a cold solution (−20°C) composed of methanol, acetonitrile, and water (5:3:2). The insoluble material was immediately pelleted in a cooled (0°C) centrifuge at 16,000 × g for 15 min and the supernatant was collected for subsequent LC-MS analysis. A ZIC-pHILIC column (4.6 mm × 150 mm, guard column 2.1 mm × 20 mm, Merck) was used for LC separation using formic acid, water, and acetonitrile as component of the mobile phase. Metabolites were detected using an Exactive mass spectrometer (ThermoFisher).

Assay [5] has as its system HCT116 cells. The assay can be described thus: Antiproliferative activity (SRB). It is filed as cell-based. Conditions: Homo sapiens, HCT-116. The protocol: as §1
For a further assay, the system named is AMPK. The assay can be described thus: Kinase selectivity screen. It is filed as biochemical, rat. The protocol: The substantially less demanding synthesis of ICL-CCIC-0019 compared with MN58B bears additional advantages. […] This consequently diminished intracellular PCho concentration, and importantly, the incorporation of [^3H]-choline into lipids (Figure 1D). […] To assess kinase specificity, ICL-CCIC-0019 was tested against a panel of 131 human kinases (Figure 1E and Supplementary Table S1). […] Inhibition greater than 20% was attained for insulin-like growth factor 1 (IGF-1R, 35 ± 7% inhibition), mitogen-activated protein kinase-activated protein kinase 3 (MAPKAP-K3, 33 ± 6%), extracellular signal regulated kinase 8 (ERK8, 31 ± 4%), ribosomal S6 kinase 1 (RSK1, 22 ± 6%), and v-erb-a erythroblastic leukemia viral oncogene homolog 4 (HER4, 21 ± 7%).

The target of a further assay is SRPK1 (Homo sapiens, UniProt Q96SB4). The assay can be described thus: Kinase selectivity screen. It is filed as biochemical. Conditions: SRPK1, 10 μM. The procedure, abridged: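 ICL-CCIC-0019 was screened against a panel of 131 human kinases to assess kinase specificity. Activity was expressed as percent inhibition of each kinase.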
Chain of SRPK1 (Q96SB4 whole entry): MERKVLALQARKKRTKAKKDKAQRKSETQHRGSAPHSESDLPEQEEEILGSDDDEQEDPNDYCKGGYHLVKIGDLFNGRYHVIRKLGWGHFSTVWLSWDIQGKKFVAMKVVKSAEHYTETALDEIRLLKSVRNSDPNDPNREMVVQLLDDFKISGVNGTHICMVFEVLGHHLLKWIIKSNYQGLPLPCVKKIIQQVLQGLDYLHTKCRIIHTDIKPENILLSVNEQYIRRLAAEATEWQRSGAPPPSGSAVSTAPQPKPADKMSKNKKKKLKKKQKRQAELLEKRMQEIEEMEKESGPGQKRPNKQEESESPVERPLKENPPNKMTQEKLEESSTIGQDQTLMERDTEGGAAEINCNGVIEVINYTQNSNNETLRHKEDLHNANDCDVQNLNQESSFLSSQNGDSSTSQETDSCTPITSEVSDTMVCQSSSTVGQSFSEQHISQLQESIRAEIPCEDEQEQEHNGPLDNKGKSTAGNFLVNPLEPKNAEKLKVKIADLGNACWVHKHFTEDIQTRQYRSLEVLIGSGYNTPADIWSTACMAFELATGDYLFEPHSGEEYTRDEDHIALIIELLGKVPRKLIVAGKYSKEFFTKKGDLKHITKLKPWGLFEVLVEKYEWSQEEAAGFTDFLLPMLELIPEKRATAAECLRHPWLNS

In general, EC50 refers to the concentration needed to bring the measured effect to its halfway point. A higher EC50 goes with a less potent agent. Broadly, the GI50 is the concentration at which growth is held to half of that of the control. The term remaining activity denotes the signal under treatment as a percentage of the control signal. In the assay on HCT116 cells [1], `CN(C)c1cc[n+](CCCCCCCCCCCC[n+]2ccc(N(C)C)cc2)cc1` [ICL-CCIC-0019] registered an EC50 of 0.98 ± 0.24 µM. Besides, the GI50 in assay [2] (read-out: GI50 range across all cell lines) was 0.0389 to 16.2 µM; in [2] (read-out: median GI50 across all cell lines), 1.12 µM; with Breast cancer cell lines, 0.627 µM; in assay [3], 0.751 µM; in the assay on HCT116 cells [5] it was 0.38 µM. Further, the figures for the “[18F]-D4-FCH tumor uptake AUC0–60” value in the assay with HCT116 xenografts (6 hours after 10 mg/kg i.p. single dose), with HCT116 xenografts (24 hours after 10 mg/kg i.p. single dose) and in the assay with HCT116 xenografts (48 hours after 10 mg/kg i.p. single dose) were 187.7 (%ID/mL)*min, 145.8 (%ID/mL)*min and 139.4 (%ID/mL)*min, respectively. Moreover, the “change of intracellular PCho pool” value with HCT116 cells [4] (1 μM) is given as −56%; in the assay on HCT116 cells [4] (10 μM), −61%. In the assay on HCT116 cells [4] (HCT116 cells), the “decrease in S-adenosylhomocysteine (SAH)” value was found to be 26%. The “increase in SAM” value with HCT116 cells [4] (HCT116 cells) is on record as 11%. In addition, in the assay with AMPK (AMPK, 10 μM), the “% activity remaining” value was 109%. Also, in the assay with AMPK (cell-free kinase assays), the “direct effect on AMPK activity” value is on record as “did not directly alter AMPK activity”. The remaining activity at 10 µM at SRPK1 is 106%.
